Test results as given in BindingDB's records for PubMed 35080403 (Yunnan University of Chinese Medicine, 2022).

Biological target: Maltase-glucoamylase (Homo sapiens, UniProt O43451)
Assay: Inhibition of Alpha-glucosidase (unknown origin)

Sequence of Maltase-glucoamylase (O43451 whole entry): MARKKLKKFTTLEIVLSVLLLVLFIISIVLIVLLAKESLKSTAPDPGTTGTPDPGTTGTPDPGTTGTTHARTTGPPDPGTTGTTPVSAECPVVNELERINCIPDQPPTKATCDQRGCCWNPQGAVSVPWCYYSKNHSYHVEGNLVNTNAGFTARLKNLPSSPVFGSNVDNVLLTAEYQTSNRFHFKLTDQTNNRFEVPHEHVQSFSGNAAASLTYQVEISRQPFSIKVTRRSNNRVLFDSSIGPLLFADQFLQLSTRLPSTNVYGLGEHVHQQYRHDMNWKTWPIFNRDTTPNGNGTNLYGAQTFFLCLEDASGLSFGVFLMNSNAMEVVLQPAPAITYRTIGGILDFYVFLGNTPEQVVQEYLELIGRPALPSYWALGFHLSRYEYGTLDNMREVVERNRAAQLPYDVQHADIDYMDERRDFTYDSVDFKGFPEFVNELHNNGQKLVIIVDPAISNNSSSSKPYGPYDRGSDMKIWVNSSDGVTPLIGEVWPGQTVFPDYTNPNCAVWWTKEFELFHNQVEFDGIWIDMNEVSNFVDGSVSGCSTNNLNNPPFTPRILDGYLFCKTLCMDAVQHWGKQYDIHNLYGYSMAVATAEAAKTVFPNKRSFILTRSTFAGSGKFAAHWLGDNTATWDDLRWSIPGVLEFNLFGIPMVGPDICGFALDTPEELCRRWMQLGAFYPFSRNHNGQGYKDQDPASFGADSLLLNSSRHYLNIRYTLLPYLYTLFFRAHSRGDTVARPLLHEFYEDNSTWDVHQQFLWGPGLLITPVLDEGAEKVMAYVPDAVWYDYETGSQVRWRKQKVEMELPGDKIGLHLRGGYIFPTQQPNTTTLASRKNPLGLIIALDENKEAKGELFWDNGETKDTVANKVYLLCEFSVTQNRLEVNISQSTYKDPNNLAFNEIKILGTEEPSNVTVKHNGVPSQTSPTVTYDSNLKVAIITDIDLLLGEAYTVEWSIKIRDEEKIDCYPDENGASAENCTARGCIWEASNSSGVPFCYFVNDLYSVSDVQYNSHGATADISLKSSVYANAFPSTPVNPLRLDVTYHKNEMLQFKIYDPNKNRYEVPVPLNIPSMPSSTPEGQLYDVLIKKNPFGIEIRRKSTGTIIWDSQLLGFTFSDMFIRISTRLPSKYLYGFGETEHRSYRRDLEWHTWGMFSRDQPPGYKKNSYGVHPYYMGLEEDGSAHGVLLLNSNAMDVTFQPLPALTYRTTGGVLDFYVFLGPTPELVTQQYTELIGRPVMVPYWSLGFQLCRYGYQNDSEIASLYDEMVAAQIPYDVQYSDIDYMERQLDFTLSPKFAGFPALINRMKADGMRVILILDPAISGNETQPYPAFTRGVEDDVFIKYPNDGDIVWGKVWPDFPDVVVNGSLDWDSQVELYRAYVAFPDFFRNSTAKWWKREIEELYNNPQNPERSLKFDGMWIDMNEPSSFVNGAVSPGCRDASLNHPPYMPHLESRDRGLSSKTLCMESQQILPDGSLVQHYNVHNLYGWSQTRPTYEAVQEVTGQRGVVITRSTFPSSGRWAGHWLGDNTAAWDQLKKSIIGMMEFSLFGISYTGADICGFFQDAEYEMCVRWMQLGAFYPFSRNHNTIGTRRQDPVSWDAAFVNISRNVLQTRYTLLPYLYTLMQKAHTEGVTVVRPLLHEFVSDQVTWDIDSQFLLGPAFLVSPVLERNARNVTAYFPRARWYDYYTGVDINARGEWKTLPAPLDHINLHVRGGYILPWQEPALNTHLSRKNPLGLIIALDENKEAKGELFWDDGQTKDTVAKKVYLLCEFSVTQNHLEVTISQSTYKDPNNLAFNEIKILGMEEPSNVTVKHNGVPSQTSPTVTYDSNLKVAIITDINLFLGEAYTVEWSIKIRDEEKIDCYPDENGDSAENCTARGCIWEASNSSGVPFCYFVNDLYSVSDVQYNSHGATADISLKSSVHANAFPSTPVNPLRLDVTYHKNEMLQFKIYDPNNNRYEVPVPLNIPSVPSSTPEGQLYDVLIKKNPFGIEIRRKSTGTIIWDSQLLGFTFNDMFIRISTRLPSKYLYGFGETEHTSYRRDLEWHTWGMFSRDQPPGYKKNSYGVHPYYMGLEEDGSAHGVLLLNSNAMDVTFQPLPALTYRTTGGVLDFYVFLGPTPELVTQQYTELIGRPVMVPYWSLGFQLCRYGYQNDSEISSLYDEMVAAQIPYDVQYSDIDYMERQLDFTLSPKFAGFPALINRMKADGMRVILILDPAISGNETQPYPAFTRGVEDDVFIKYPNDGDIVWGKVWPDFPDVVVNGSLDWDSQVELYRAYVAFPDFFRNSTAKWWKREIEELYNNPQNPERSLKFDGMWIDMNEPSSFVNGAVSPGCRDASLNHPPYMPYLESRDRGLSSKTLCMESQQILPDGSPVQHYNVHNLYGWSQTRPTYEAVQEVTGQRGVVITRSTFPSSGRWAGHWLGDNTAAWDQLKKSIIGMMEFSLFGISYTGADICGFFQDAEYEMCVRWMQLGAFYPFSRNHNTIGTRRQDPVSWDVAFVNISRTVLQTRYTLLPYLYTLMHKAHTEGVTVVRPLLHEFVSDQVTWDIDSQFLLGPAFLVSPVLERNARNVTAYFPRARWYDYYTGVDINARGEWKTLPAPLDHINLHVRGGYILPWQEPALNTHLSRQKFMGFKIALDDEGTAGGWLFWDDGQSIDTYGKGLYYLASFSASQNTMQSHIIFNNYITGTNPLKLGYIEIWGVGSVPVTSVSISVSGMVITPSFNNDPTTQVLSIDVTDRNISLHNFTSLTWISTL

Work on `CC/C=C\C/C=C\CCC(=O)O[C@@]12[C@H](OC(=O)[C@@H](C)CC)[C@@H](C)[C@@]3(O)[C@@H](C(=O)C(CO)=C[C@]4(O)C(=O)C(C)=C[C@@H]34)[C@@H]1C2(C)C` yielded an IC50 of 15.3 µM.
